{
  "source": "patent US20090270401A1",
  "about": "“USE OF A DIHYDROIMIDAZOPYRAZOINE DERIVATIVE FOR TREATING OR PREVENTING PAIN” (Societe de Conseils de Recherches et D'Applications …, priority 2004, published 2009)",
  "assay_type_in_all_cases": "in vivo",
  "key": {"[1]": {"system": "neuropathy induced by chronic constriction injury on the rat's paw", "experiment": "Model of neuropathy induced by sciatic nerve lesion (chronic constriction injury), Randall-Selitto test", "procedure": "The activity of compound (I) or its salt according to the invention was evaluated in vivo on a model of neuropathy induced by chronic constriction injury on the rat's paw.\nMale Sprague Dawley (Charles River) rats weighing approximately 200 g are housed for 6 days under animal room conditions. Before the start of the experiment (day zero) the pain threshold (or nociceptive threshold) was evaluated by measuring the withdrawal of the rat's paw caused by a mechanical stimulus (initial pressure 210 g/mm^2) applied using an analgesy meter (Randall-Selitto test). This threshold is the pain base threshold. Then, also on day zero, the rats are rendered neuropathic by chronic constriction injury according to the Bennett and Xies (1988) method: 4 ligatures spaced at approximately 2 mm (monocryl suture; 5.0) are carried out on the sciatic nerve of the rat's right paw, above the trifurcation. This operation is carried out under general anaesthetic using isoflurane. […] On day 14 after the operation, the pain threshold was re-evaluated. […] The readings are taken at the following times: 0.5 hours 2.5 hours and 4 hours after injection of compound (I). […]\n(§1) This effectiveness is statistically determined by a variance analysis test (one route) and/or a Dunnett's test (two routes).\nThe effective dose (ED50) was determined. […]"}, "[2]": {"system": "neuropathy induced by administration of an anti-cancer agent (paclitaxel (taxol)), on a rat's paw", "experiment": "Model of neuropathy induced by administration of an anti-cancer agent (paclitaxel), Randall-Selitto test", "settings": "significantly increased", "procedure": "The activity of compound (I) or its salt according to the invention was evaluated in vivo on a model of neuropathy induced by administration of an anti-cancer agent (paclitaxel (taxol)), on a rat's paw.\nMale Sprague Dawley (Charles River) rats weighing approximately 200 g are housed for 6 days under animal room conditions. 3 groups are constituted by at least 10 animals.\nThe neuropathy is induced by intra-peritoneal injections (i.p.) of 2 mg/kg of paclitaxel (extract of Taxus Yannanensis) on days D0, D2, D4 and D7.\nBefore the first injection, the rats are numbered and weighed and nociception is evaluated after a mechanical stimulus of increasing pressure: induction of an initial pressure (210 g/m^2) on the rats' two rear paws carried out using an analgesy meter according to the Randall and Selitto method. These measurements allow the base values to be defined before development of the neuropathy (D0). […]\nOn the day of the experiment, the rats are weighed, nociception is measured and the animals which have not developed the neuropathy on this day (reduction of nociception in comparison with the readings on D0) are excluded from the study. The product being tested is administered and nociception is measured at different times after its administration."}, "[3]": {"system": "carrageenin-induced inflammatory hyperalgesia in a rat's paw", "experiment": "Model of carrageenin-induced inflammatory hyperalgesia (Randall-Selitto test)", "procedure": "The activity of compound (I) or its salt according to the invention has been evaluated in vivo on a model of carrageenin-induced inflammatory hyperalgesia in a rat's paw.\nMale Sprague Dawley (Charles River) rats weighing approximately 200 g are housed for 5 to 8 days under animal room conditions and fasted on grids for 18 hours before and during the experiment. 4 groups are constituted by at least 6 animals. The products are administered by intravenous route (i.v., 1 ml/kg) 2 hours 30 minutes after the injection of carrageenin. Carrageenin at a concentration of 2 mg/0.1 ml was injected by sub-plantar route in the right rear paw of the rats (0.1 ml was injected per animal). The pain threshold (or nociceptive threshold) was evaluated by measuring the withdrawal of the rat's paw caused by a mechanical stimulus of increasing pressure (initial pressure 210 g/mm^2) applied using an analgesy meter (Randall-Selitto test). The measurements were taken just before the injection of carrageenin (t=−2 hours 30 minutes) and then at time 0.5 hours, 2 hours 30 minutes and 4 hours after injection of the products to be tested, which was carried out at t=0.\nas §1\nThe effective dose (ED50) was determined. By ED50, is meant the dose which reduces by half the pain induced in the model tested."}, "[4]": {"settings": "Rattus norvegicus, iv, at time 0.5 hours, read-out: ED50 (dose which reduces by half the pain induced)"}},
  "data": [
    {"compound": "N[C@@H](CSSC[C@H](N)C(=O)N1CCn2cc(-c3ccccc3)nc2[C@@H]1CC1CCCCC1)C(=O)N1CCn2cc(-c3ccccc3)nc2[C@@H]1CC1CCCCC1", "note": "[Compound (I), (1R)-1-[({(2R)-2-amino-3-[(8S)-8-(cyclohexylmethyl)-2-phenyl-5,6-dihydroimidazo[1,2-a]pyrazin-7(8H)-yl]-3-oxopropyl}dithio)methyl]-2-[(8S)-8-(cyclohexylmethyl)-2-phenyl-5,6-dihydroimidazo[1,2-a]pyrazin-7(8H)-yl]-2-oxoethylamine]", "values": [
      {"measurement": "pain threshold following a mechanical stimulus applied to the rats' paws", "setting": "[1]; 3 mg/kg i.v., time 0.5 hours, day 14 after operation, control 200 g/mm^2, significantly increased", "value": "approximately 320 g/mm^2"},
      {"measurement": "ED50", "setting": "[1]; [4]", "value": 2.5, "unit": "mg/kg"},
      {"measurement": "pain threshold following a mechanical stimulus applied on the rats' paws", "setting": "[2]; 3 mg/kg i.v., time 0.5 hours, paclitaxel alone 250 g/mm^2", "value": "approximately 370 g/mm^2"},
      {"measurement": "pain threshold following a mechanical stimulus applied to the rats' paws", "setting": "[2]; 100 mg/kg p.o., time 1 hour, paclitaxel alone 240 g/mm^2", "value": "approximately 400 g/mm^2"},
      {"measurement": "pain threshold following a mechanical stimulus applied to the rats' paws", "setting": "[3]; 1 mg/kg i.v., time 0.5 hours, control 240 g/mm^2, significantly increased", "value": "approximately 400 g/mm^2"},
      {"measurement": "ED50", "setting": "[3]; [4]", "value": 0.42, "unit": "mg/kg"}
    ]}
  ]
}
